From patent US20230167088A1, “1-PYRAZINYLPYRAZOLYL-3-OXYALKYL ACIDS AND THEIR DERIVATIVES, AND THEIR USE FOR CONTROL OF UNDESIRED PLANT GROWTH” (BAYER AKTIENGESELLSCHAFT, priority 2020, published 2023)

Experiments:
DIGSA [1] = assay: Herbicidal post-emergence action 1b (twin sowing, 1280 g/ha); format: in vivo, Digitaria sanguinalis; details: dosage 1280 g/ha, visual rating about 3 weeks after treatment
Method in brief: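 Sow paired weed species in sandy loam pots and grow in the greenhouse; at the one-leaf stage (2–3 weeks) spray green parts with compound suspension or emulsion containing 0.5% additive at 600 L water/ha; keep about 3 weeks, then score damage visually relative to untreated plants.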

DIGSA [2] = assay: Herbicidal pre-emergence action 2a (greenhouse pots, visual scoring); format: in vivo, Digitaria sanguinalis; details: dosage 320 g/ha, visual scoring after about 3 weeks
Method in brief: (§1)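 Percent effect (0% like control, 100% plants died) was scored by eye roughly 3 weeks post-application. Formulated compound went onto the soil covering freshly sown seeds in water at 600 l/ha with 0.5% additive; dose 320 g/ha and/or 80 g/ha.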

PHBPU = assay: Herbicidal post-emergence action 1a (greenhouse pots, visual rating); format: in vivo, Pharbitis purpurea; details: visual rating about 3 weeks after treatment
Method in brief: (§2)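 Weeds and crops sown in sandy loam in greenhouse pots were sprayed post-emergence at the one-leaf stage (2–3 weeks after sowing) with WP or EC formulations plus 0.5% additive at 600 l/ha water, 320 and/or 80 g/ha. About 3 weeks later damage was rated visually against untreated controls (0% = no effect, 100% = dead).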

ECHCG = assay: as above; format: in vivo, Echinochloa crus-galli; details: rated visually about 3 weeks after treatment, 100% = plants have died, 0% = like control plants
Method in brief: as §2

ABUTH = assay: as above; format: in vivo, Abutilon theophrasti; details: visual rating about 3 weeks after treatment
Method in brief: as §2

SETVI [3] = assay: as above; format: in vivo, Setaria viridis; details: rated visually about 3 weeks after treatment, 100% = plants have died, 0% = like control plants
Method in brief: as §2

VIOTR = assay: Herbicidal pre-emergence action 2a (greenhouse pots, visual scoring); format: in vivo, Viola tricolor; details: dosage 320 g/ha, visual scoring after about 3 weeks vs untreated controls
Method in brief: as §1

POLCO = assay: Herbicidal post-emergence action 1a (greenhouse pots, visual rating); format: in vivo, Polygonum convolvulus; details: visual rating about 3 weeks after treatment
Method in brief: as §2

SETVI [4] = assay: Herbicidal pre-emergence action 2a (greenhouse pots, visual scoring); format: in vivo, Setaria viridis; details: dosage 320 g/ha, visual scoring after about 3 weeks vs untreated controls
Method in brief: as §1

harmful plants = assay: Herbicidal post-emergence action 1a, summary across species; format: in vivo; details: Tables A1 to A15 (320 g/ha and/or 80 g/ha)
Protocol: a) Seeds of monocotyledonous and dicotyledonous weeds and crop plants are placed in sandy loam in plastic or organic plant pots, covered with soil and cultivated in a greenhouse under controlled growth conditions. 2 to 3 weeks after sowing, the test plants are treated at the one-leaf stage. The compounds of the invention, formulated in the form of wettable powders (WP) or as emulsion concentrates (EC), are then sprayed onto the green parts of the plants as aqueous suspension or emulsion with addition of 0.5% additive at a water application rate of 600 1/ha (converted). After the test plants have been kept in the greenhouse under optimum growth conditions for about 3 weeks, the activity of the preparations is rated visually in comparison to untreated controls. For example, 100% activity=the plants have died, 0% activity=like control plants.
Tables A1 to A15 below show the effects of selected compounds of the general formula (I) according to Tables 1 and 2 on various harmful plants and an application rate corresponding to 320 g/ha and/or 80 g/ha, which were obtained by the experimental procedure mentioned above.
For example, compound nos. I-05, I-07, I-08, I-10, I-12, I-16, I-17, I-22, I-36, I-37, I-39 and I-40 in the post-emergence method have very good action (80% to 100% herbicidal activity) against harmful plants such as Alopecurus myosuroides, Amaranthus retroflexus, Avena fatua, Lolium rigidum, Polygonum convolvulus, Setaria viridis, Veronica persica and Viola tricolor at an application rate of 0.32 kg of active substance per hectare.

DIGSA [5] = assay: Herbicidal post-emergence action 1a (greenhouse pots, visual rating); format: in vivo, Digitaria sanguinalis; details: rated visually about 3 weeks after treatment, 100% = plants have died, 0% = like control plants
Method in brief: as §2

COC(=O)COc1nn(-c2cnccn2)c(-c2ccc(F)nc2)c1Br [Example I-11]
Post-emergence action at 1280 g/ha against DIGSA in % (DIGSA [1]): 100%
Pre-emergence action against DIGSA in % (DIGSA [2]): 100%
Post-emergence action against PHBPU in % (PHBPU; dosage 80 g/ha): 80%
Post-emergence action against PHBPU in % (PHBPU; dosage 320 g/ha): 80%
Post-emergence action against ECHCG in % (ECHCG; Dosage 320 g/ha): 80%
Post-emergence action against ABUTH in % (ABUTH; dosage 320 g/ha): 80%
Post-emergence action against SETVI in % (SETVI [3]; Dosage 320 g/ha): 90%
Pre-emergence action against VIOTR in % (VIOTR): 100%
Post-emergence action against POLCO in % (POLCO; dosage 320 g/ha): 90%
Pre-emergence action against SETVI in % (SETVI [4]): 100%
herbicidal efficacy against harmful plants in the case of post-emergence treatment (in words) (harmful plants): good herbicidal efficacy

COC(=O)[C@@H](C)Oc1nn(-c2cnccn2)c(-c2ccnc(F)c2)c1Br [Example I-34]
Post-emergence action at 1280 g/ha against DIGSA in % (DIGSA [1]): 100%
Pre-emergence action against DIGSA in % (DIGSA [2]): 100%
Post-emergence action against PHBPU in % (PHBPU; dosage 320 g/ha): 80%
Post-emergence action against SETVI in % (SETVI [3]; Dosage 80 g/ha): 80%
Post-emergence action against SETVI in % (SETVI [3]; Dosage 320 g/ha): 90%
Pre-emergence action against VIOTR in % (VIOTR): 100%
Post-emergence action against DIGSA in % (DIGSA [5]; Dosage 320 g/ha): 80%
Post-emergence action against POLCO in % (POLCO; dosage 320 g/ha): 100%
Pre-emergence action against SETVI in % (SETVI [4]): 100%
herbicidal efficacy against harmful plants in the case of post-emergence treatment (in words) (harmful plants): good herbicidal efficacy

COC(=O)[C@@H](C)Oc1nn(-c2cnccn2)c(-c2ccc(F)nc2)c1Cl [Example I-36]
Post-emergence action at 1280 g/ha against DIGSA in % (DIGSA [1]): 100%
Pre-emergence action against DIGSA in % (DIGSA [2]): 100%
Post-emergence action against PHBPU in % (PHBPU; dosage 80 g/ha): 90%
Post-emergence action against PHBPU in % (PHBPU; dosage 320 g/ha): 90%
Post-emergence action against ABUTH in % (ABUTH; dosage 320 g/ha): 80%
Post-emergence action against SETVI in % (SETVI [3]; Dosage 320 g/ha): 100%
Pre-emergence action against VIOTR in % (VIOTR): 100%
Post-emergence action against DIGSA in % (DIGSA [5]; Dosage 80 g/ha): 80%
Post-emergence action against DIGSA in % (DIGSA [5]; Dosage 320 g/ha): 90%
Post-emergence action against POLCO in % (POLCO; dosage 80 g/ha): 90%
Post-emergence action against POLCO in % (POLCO; dosage 320 g/ha): 100%
Pre-emergence action against SETVI in % (SETVI [4]): 100%
herbicidal efficacy against harmful plants in the case of post-emergence treatment (in words) (harmful plants): good herbicidal efficacy

C[C@H](Oc1nn(-c2cnccn2)c(-c2cncc(F)c2)c1Br)C(=O)O [Example I-37]
Post-emergence action at 1280 g/ha against DIGSA in % (DIGSA [1]): 100%
Pre-emergence action against DIGSA in % (DIGSA [2]): 100%
Post-emergence action against PHBPU in % (PHBPU; dosage 320 g/ha): 80%
Post-emergence action against ECHCG in % (ECHCG; Dosage 320 g/ha): 90%
Post-emergence action against ABUTH in % (ABUTH; dosage 80 g/ha): 80%
Post-emergence action against ABUTH in % (ABUTH; dosage 320 g/ha): 80%
Post-emergence action against SETVI in % (SETVI [3]; Dosage 80 g/ha): 90%
Post-emergence action against SETVI in % (SETVI [3]; Dosage 320 g/ha): 90%
Pre-emergence action against VIOTR in % (VIOTR): 100%
Post-emergence action against DIGSA in % (DIGSA [5]; Dosage 320 g/ha): 90%
Post-emergence action against POLCO in % (POLCO; dosage 320 g/ha): 100%
Pre-emergence action against SETVI in % (SETVI [4]): 100%
herbicidal efficacy against harmful plants in the case of post-emergence treatment (in words) (harmful plants): good herbicidal efficacy

COC(=O)[C@@H](C)Oc1nn(-c2cnccn2)c(-c2cncc(F)c2)c1Br [Example I-39]
Post-emergence action at 1280 g/ha against DIGSA in % (DIGSA [1]): 100%
Pre-emergence action against DIGSA in % (DIGSA [2]): 100%
Post-emergence action against PHBPU in % (PHBPU; dosage 80 g/ha): 80%
Post-emergence action against PHBPU in % (PHBPU; dosage 320 g/ha): 90%
Post-emergence action against ECHCG in % (ECHCG; Dosage 80 g/ha): 80%
Post-emergence action against ECHCG in % (ECHCG; Dosage 320 g/ha): 90%
Post-emergence action against ABUTH in % (ABUTH; dosage 80 g/ha): 80%
Post-emergence action against ABUTH in % (ABUTH; dosage 320 g/ha): 80%
Post-emergence action against SETVI in % (SETVI [3]; Dosage 80 g/ha): 80%
Post-emergence action against SETVI in % (SETVI [3]; Dosage 320 g/ha): 80%
Pre-emergence action against VIOTR in % (VIOTR): 100%
Post-emergence action against DIGSA in % (DIGSA [5]; Dosage 80 g/ha): 80%
Post-emergence action against DIGSA in % (DIGSA [5]; Dosage 320 g/ha): 90%
Post-emergence action against POLCO in % (POLCO; dosage 320 g/ha): 90%
Pre-emergence action against SETVI in % (SETVI [4]): 100%
herbicidal efficacy against harmful plants in the case of post-emergence treatment (in words) (harmful plants): good herbicidal efficacy

COC(=O)[C@@H](C)Oc1nn(-c2cnccn2)c(-c2cncc(F)c2)c1C#N [Example I-40]
Post-emergence action at 1280 g/ha against DIGSA in % (DIGSA [1]): 90%
Pre-emergence action against DIGSA in % (DIGSA [2]): 100%
Post-emergence action against PHBPU in % (PHBPU; dosage 320 g/ha): 90%
Post-emergence action against ABUTH in % (ABUTH; dosage 80 g/ha): 80%
Post-emergence action against ABUTH in % (ABUTH; dosage 320 g/ha): 80%
Post-emergence action against SETVI in % (SETVI [3]; Dosage 320 g/ha): 90%
Pre-emergence action against VIOTR in % (VIOTR): 90%
Post-emergence action against DIGSA in % (DIGSA [5]; Dosage 320 g/ha): 80%
Post-emergence action against POLCO in % (POLCO; dosage 80 g/ha): 80%
Post-emergence action against POLCO in % (POLCO; dosage 320 g/ha): 80%
Pre-emergence action against SETVI in % (SETVI [4]): 100%
herbicidal efficacy against harmful plants in the case of post-emergence treatment (in words) (harmful plants): good herbicidal efficacy

COC(=O)[C@@H](C)Oc1nn(-c2cnccn2)c(-c2ccc(F)c(F)c2)c1Br [Example I-45]
Post-emergence action at 1280 g/ha against DIGSA in % (DIGSA [1]): 100%
Pre-emergence action against DIGSA in % (DIGSA [2]): 100%
Post-emergence action against PHBPU in % (PHBPU; dosage 320 g/ha): 90%
Post-emergence action against ECHCG in % (ECHCG; Dosage 320 g/ha): 80%
Post-emergence action against ABUTH in % (ABUTH; dosage 320 g/ha): 80%
Post-emergence action against SETVI in % (SETVI [3]; Dosage 320 g/ha): 80%
Pre-emergence action against VIOTR in % (VIOTR): 100%
Post-emergence action against POLCO in % (POLCO; dosage 320 g/ha): 100%
Pre-emergence action against SETVI in % (SETVI [4]): 100%
herbicidal efficacy against harmful plants in the case of post-emergence treatment (in words) (harmful plants): good herbicidal efficacy

CCOC(=O)COc1nn(-c2cnccn2)c(-c2ccc(F)nc2)c1Cl [Example I-53]
Post-emergence action at 1280 g/ha against DIGSA in % (DIGSA [1]): 100%
Pre-emergence action against DIGSA in % (DIGSA [2]): 100%
Post-emergence action against PHBPU in % (PHBPU; dosage 80 g/ha): 80%
Post-emergence action against ECHCG in % (ECHCG; Dosage 80 g/ha): 80%
Post-emergence action against ABUTH in % (ABUTH; dosage 80 g/ha): 80%
Post-emergence action against SETVI in % (SETVI [3]; Dosage 80 g/ha): 80%
Pre-emergence action against VIOTR in % (VIOTR): 100%
Post-emergence action against DIGSA in % (DIGSA [5]; Dosage 80 g/ha): 90%
Post-emergence action against POLCO in % (POLCO; dosage 80 g/ha): 90%
Post-emergence action against POLCO in % (POLCO; dosage 320 g/ha): 90%
Pre-emergence action against SETVI in % (SETVI [4]): 100%
herbicidal efficacy against harmful plants in the case of post-emergence treatment (in words) (harmful plants): good herbicidal efficacy
